According to patent publication US20200237731A1, “USE OF CLOXACILLIN TO INHIBIT/PREVENT BIOFILM FORMATION” (priority 2017, published 2020):
Converted amounts (≈) assume the structure as drawn. “And” between values parts separate entries of the source, which are not always exact repeats. Equal entries are not always repeated.

What was measured:
[1] = test system: clinical strains of Staphylococcus aureus; experiment: Antibiofilmogram / BioFilm Ring Test: biofilm minimum inhibitory concentration (MICb); type: cell-based; conditions: for MIC: Staphylococcus aureus; for MIC / MIC b: 4 h, BHI medium
Description: To determine and measure the effect of cloxacillin on biofilm formation, specifically bacterial adhesion, the first step in biofilm formation, Staphylococcus aureus strains S14 and S39 were incubated in the wells of a 96-well microplate in the presence of varying concentrations of cloxacillin. The concentrations tested ranged from 0.25 μg/mL to 32 μg/mL cloxacillin. This test is called, by BioFilm Control, an Antibiofilmogram®. The inoculum of bacteria was 4·10^6 bacteria/mL, in 200 μL brain heart infusion (BHI) medium, in the presence of magnetic microbeads (Toner 4, product code TON004) at a concentration of 2 μL per 200 μL, i.e. 10 μL/mL).
The microplate was incubated for 4 hat 37° C., then covered with 120 μL of contrast liquid (Contrast liquid; product code LIC001) and placed for 1 minute on a magnet block (product code BKTMB) designed so that each mini-magnet is centered with respect to the 96 wells. The microplate was then placed on a scanner and the image was acquired and analyzed by the BFCE3 software which quantifies the aggregation of the magnetic microbeads in the center of the wells and provides a biofilm formation index (BFI) value. A BFI value of 20, or close to 20 corresponds to maximum aggregation, therefore no biofilm formation, and therefore cloxacillin anti-adhesion efficacy. […] All intermediate values, allowing a quantitative measurement of the efficacy of cloxacillin are possible.
The experimental procedure and protocol were as described above.
The measurement of the MICb (determination of the biofilm minimum inhibitory concentration), using the BioFilm Ring ^Test® was performed in BHI medium. The conversion in mg/kg. The results are summarized in Table 1 according to the strains tested.

[2] = test system: clinical strains of Staphylococcus aureus; experiment: MIC of cloxacillin by growth (absorbance) in 96-well microplates, Mueller-Hinton medium; type: cell-based; conditions: for MIC: Staphylococcus aureus, read-out: MH MIC
Description: The determination of each minimum inhibitory concentration (MIC) of cloxacillin was measured conventionally by measuring the growth of each strain in 96-well microplates in the presence of concentrations of antibiotic by absorbance.
The MIC was measured in Mueller-Hinton medium (MH; reference medium for antibiotic susceptibility testing) and brain heart infusion (BHI) medium.

Cc1onc(-c2ccccc2Cl)c1C(=O)N[C@@H]1C(=O)N2[C@@H]1SC(C)(C)[C@@H]2C(=O)O [cloxacillin]
MIC ([1]; strain S02): 2 µg/mL (≈ 4.59 µM)
MIC ([1]; strain S04): 4 µg/mL (≈ 9.18 µM)
MIC ([1]; strain S08): 2 µg/mL (≈ 4.59 µM)
MIC ([1]; strain S11): 4 µg/mL (≈ 9.18 µM)
MIC ([1]; strain S14): 2 µg/mL (≈ 4.59 µM)
MIC ([1]; strain S16): 4 µg/mL (≈ 9.18 µM)
MIC ([1]; strain S19): 2 µg/mL (≈ 4.59 µM)
MIC ([1]; strain S21): 4 µg/mL (≈ 9.18 µM)
MIC ([1]; strain S22): 4 µg/mL (≈ 9.18 µM)
MIC ([1]; strain S26): 4 µg/mL (≈ 9.18 µM)
MIC ([1]; strain S27): 4 µg/mL (≈ 9.18 µM)
MIC ([1]; strain S31): 4 µg/mL (≈ 9.18 µM)
MIC ([1]; strain S34): 8 µg/mL (≈ 18.4 µM)
MIC ([1]; strain S38): 16 µg/mL (≈ 36.7 µM)
MIC ([1]; strain S39): 8 µg/mL (≈ 18.4 µM)
MIC ([1]; strain S40): 4 µg/mL (≈ 9.18 µM)
MIC ([1]; strain S43): 4 µg/mL (≈ 9.18 µM)
MIC ([1]; strain S44): 4 µg/mL (≈ 9.18 µM)
MIC ([1]; strain S46): 2 µg/mL (≈ 4.59 µM)
MIC ([1]; strain S47): 2 µg/mL (≈ 4.59 µM)
MIC ([1]; strain S51): 4 µg/mL (≈ 9.18 µM)
MIC ([1]; strain S58): 16 µg/mL (≈ 36.7 µM)
MIC ([1]; strain S62): 8 µg/mL (≈ 18.4 µM)
MIC ([1]; strain S63): 8 µg/mL (≈ 18.4 µM)
MIC ([1]; strain S74): 4 µg/mL (≈ 9.18 µM)
MIC ([1]; strain S83): 16 µg/mL (≈ 36.7 µM)
mean MICb ([1]; panel of 26 strains, standard deviation 4.2 μg/mL): 5.5 µg/mL
MIC b ([1]; strain S02): 2 µg/mL (≈ 4.59 µM)
MIC b ([1]; strain S14): 2 µg/mL (≈ 4.59 µM)
MIC b ([1]; strain S38): 16 µg/mL (≈ 36.7 µM)
MIC b ([1]; strain S39): 6 µg/mL and 4 to 6 µg/mL and 4 µg/mL
MIC b ([1]; strain S58): 16 µg/mL (≈ 36.7 µM)
MIC b ([1]; strain S83): 16 µg/mL (≈ 36.7 µM)
MIC ([2]; strain S02): 0.125 µg/mL
MIC ([2]; strain S04): 0.25 µg/mL
MIC ([2]; strain S08): 0.25 µg/mL
MIC ([2]; strain S11): 0.5 µg/mL
MIC ([2]; strain S14): 0.25 µg/mL
MIC ([2]; strain S16): 0.25 µg/mL
MIC ([2]; strain S19): 0.5 µg/mL
MIC ([2]; strain S21): 0.25 µg/mL
MIC ([2]; strain S22): 0.5 µg/mL
MIC ([2]; strain S26): 0.25 µg/mL
MIC ([2]; strain S27): 0.25 µg/mL
MIC ([2]; strain S31): 0.25 µg/mL
MIC ([2]; strain S34): 0.5 µg/mL
MIC ([2]; strain S38): 0.5 µg/mL
MIC ([2]; strain S39): 0.5 µg/mL
MIC ([2]; strain S40): 0.5 µg/mL
MIC ([2]; strain S43): 0.25 µg/mL
MIC ([2]; strain S44): 0.25 µg/mL
MIC ([2]; strain S46): 0.25 µg/mL
MIC ([2]; strain S47): 0.25 µg/mL
MIC ([2]; strain S51): 0.25 µg/mL
MIC ([2]; strain S58): 0.25 µg/mL
MIC ([2]; strain S62): 0.25 µg/mL
MIC ([2]; strain S63): 0.25 µg/mL
MIC ([2]; strain S74): 0.25 µg/mL
MIC ([2]; strain S83): 0.125 µg/mL
MH MIC ([2]; strain S02): 0.125 µg/mL
MH MIC ([2]; strain S38): 0.5 µg/mL
MH MIC ([2]; strain S58): 0.25 µg/mL
MH MIC ([2]; strain S83): 0.125 µg/mL
